Measured values as given in publication PMC11859636, “Design, Synthesis, and Mechanistic Anticancer Evaluation of New Pyrimidine-Tethered Compounds” (Pharmaceuticals, 2025).
Values joined by “and” are separate entries in the source; they are usually repeats but may differ in a detail not shown here. Equal entries are not always repeated. Where two headings read alike, the source gives them in different places.

Legend:
[1] = system: A549 cells; assay: MTT assay for cytotoxicity, A549 cells; format: cell-based, human; settings: for anti-NSCLC activity (cytotoxicity): A549 cells, 100 µM; for IC50: Homo sapiens, A549, MTT, 72 h
Protocol: (§1) Dulbecco’s modified Eagle’s medium (DMEM) (Wako Pure Chemical Industries, Osaka, Japan) containing 10% fetal bovine serum (FBS) (Equitech-Bio, Kerrville, TX, USA) was used for the culture of A549 and MCF-7 human cancer cells, while RPMI 1640 (Wako Pure Chemical Industries) containing 10% FBS was used for the culture of Jurkat cells, derived from human leukemia. On the other hand, PBMCs (Precision Bioservices, Frederick, MD, USA) were incubated in RPMI 1640 supplemented with 10% human serum AB (HS) (Gemini, Woodland, CA, USA). All media also incorporated 89 μg/mL of streptomycin (Meiji Seika Pharma, Tokyo, Japan), and cells were maintained at 37 °C in a 95% air and 5% CO2 humidified chamber. The microtiter tissue culture plates (24-well and 96-well) (Iwaki, Asahi Glass Co., Chiba, Japan) were used for cancer cells (4 × 10^4 cells/mL) and PBMCs (5 × 10^5 cells/mL), respectively. Prior to drug treatment, all of these cells were incubated for 72 h. The optimal cell density for cytotoxicity testing was established in preliminary experiments. […] The final concentration of DMSO in the culture medium was adjusted to 1% [61, 62, 63].
(§2) The cellular reduction in MTT (Dojindo Molecular Technologies, Kumamoto, Japan) was measured as described in the literature with minor modifications. […] MTT was then added at a final concentration 0.275 mg/mL and incubated for a further 4 h at 37 °C. The medium was removed and 100 μL DMSO was added to each well to dissolve the formazan crystals. The dissolved crystals were diluted (1:10) with DMSO, and 100 μL of the solution was transferred to a 96-well microtiter plate (Iwaki, Asahi Glass Co.). Absorbance was measured at 570 nm using an Infinitive M1000 microplate spectrophotometer (Tecan, Groding, Austria). Each concentration was tested in triplicate, and the IC50 values were determined as the drug concentrations that reduced absorbance to 50% of the control values.

[2] = system: MCF-7 cells; assay: MTT assay for cytotoxicity, MCF-7 cells; format: cell-based, human; settings: for IC50: Homo sapiens, MCF7, MTT, 72 h; for anti-breast cancer activity (cytotoxicity): MCF-7 cells, 100 µM
Protocol: as §1, §2

[3] = system: Jurkat cells; assay: MTT assay for cytotoxicity, Jurkat cells; format: cell-based, human; settings: for IC50: Homo sapiens, Jurkat, MTT, 72 h
Protocol: as §1, §2

[4] = system: PBMCs; assay: MTT assay for cytotoxicity, PBMCs (healthy); format: cell-based; settings: PBMC, 72 h, healthy cells
Protocol: as §1
The cellular reduction in MTT (Dojindo Molecular Technologies, Kumamoto, Japan) was measured as described in the literature with minor modifications. […] Absorbance was measured at 570 nm using an Infinitive M1000 microplate spectrophotometer (Tecan, Groding, Austria). […]

[5] = system: A549 cells; assay: Annexin V/ethidium homodimer III staining for apoptosis, A549 cells; format: cell-based, human; settings: IC50 concentration, 24 h
Protocol: (§3) Compound B-4 at an IC50 concentration was administered to A549 and MCF-7 cells for 24 h. After detachment from the plate with 0.05% trypsin and washing twice with 1× binding buffer, the cells were incubated for 20 min at r.t. in the dark with a staining solution bearing 50 μL 1× binding buffer, 4 μL FTIC annexin V solution, 4 μL ethidium homodimer III solution, and 4 μL Hoechst 33342 solution. The cells were washed with 1× binding buffer, fixed with 2% paraformaldehyde, washed with PBS, and analyzed by a Biorevo Fluorescence BZ-9000 (Keyence, Osaka, Japan) integrated fluorescence microscope.

[6] = system: MCF-7 cells; assay: Annexin V/ethidium homodimer III staining for apoptosis, MCF-7 cells; format: cell-based, human; settings: IC50 concentration, 24 h
Protocol: as §3

[7] = molecular target: T1, EGFR kinase (Homo sapiens, UniProt P00533); assay: EGFR inhibition assay (EGFR Kinase Enzyme System, ADP-Glo); format: biochemical
T1 construct: EGFR kinase (human, recombinant; amino acids 695–end); purchased Promega Corporation V3831
Protocol: The kinase profiling assay protocol (EGFR Kinase Enzyme System, V3831) was performed following the manufacturer’s instructions (Promega Corporation, Madison, WI, USA) with minor modifications. As per the protocol, 95 μL of 2.5× kinase buffer and 15 μL of 100 μM ATP solution were used for the dilution of the EGFR kinase (human, recombinant; amino acids 695–end) and its substrate (4:1 Glu, Tyr). Kinase reactions were performed in a 384-well plate in the presence of 2 μL of kinase working stock, 2 μL of ATP/substrate working stock, and 1 μL of the test compound solution ([…]) or 5% DMSO solution. After incubating for 2 h at r.t., kinase activity was assessed using the ADP-Glo Kinase Assay (Promega Corporation, Madison, WI, USA) following the manufacturer’s instructions. Specifically, 5 μL of ADP-Glo Reagent was added to each well and incubated for 40 min, followed by the addition of 10 μL of Kinase Detection Reagent and further incubation for 30 min at room temperature. Luminescence was measured using the Infinite M1000 microplate reader (Tecan, Grödig, Austria) with an integration time of 0.5–1 s to evaluate the kinase inhibitory effects of the compounds in a dose-dependent manner.

[8] = system: A549 cells; settings: cited from earlier work
[9] = system: EGFR; settings: cited from earlier work; for IC50: read-out: EGFR inhibition IC50
[10] = system: MCF-7 cells; settings: cited from earlier work
[11] = thiazolyl–pyrazolines, read-out: IC50 A549 cells
[12] = triazoloquinoxaline–chalcone derivatives
[13] = quinoline/chalcone hybrids with 1,2,4-triazole

T1 sequence (P00533 695-1210 limits assumed): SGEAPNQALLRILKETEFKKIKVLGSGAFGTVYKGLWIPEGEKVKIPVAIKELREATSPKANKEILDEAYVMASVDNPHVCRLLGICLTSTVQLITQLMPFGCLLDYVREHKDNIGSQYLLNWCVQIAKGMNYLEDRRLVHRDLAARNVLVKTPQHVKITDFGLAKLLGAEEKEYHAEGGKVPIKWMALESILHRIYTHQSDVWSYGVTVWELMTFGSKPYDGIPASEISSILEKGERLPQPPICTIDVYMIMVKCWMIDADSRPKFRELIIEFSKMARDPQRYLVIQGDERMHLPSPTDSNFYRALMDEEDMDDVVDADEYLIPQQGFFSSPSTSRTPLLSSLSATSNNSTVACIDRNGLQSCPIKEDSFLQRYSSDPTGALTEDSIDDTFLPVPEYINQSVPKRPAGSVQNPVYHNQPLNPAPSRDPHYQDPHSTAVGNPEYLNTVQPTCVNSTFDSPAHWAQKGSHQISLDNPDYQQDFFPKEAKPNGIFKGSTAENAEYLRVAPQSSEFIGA

For `COc1ccc(C(=O)/C=C/c2cnc(-c3ccc(Cl)cc3)nc2)cc1OC` [B-4, (E)-3-(2-(4-chlorophenyl)pyrimidin-5-yl)-1-(3,4-dimethoxyphenyl)prop-2-en-1-one], which “anti-NSCLC activity (cytotoxicity)” value [1] is on record?
The value was 70%.

And the IC50 [1]?
The IC50 was 20.5 ± 2.71 µM.

What about the IC50 [2] of the same compound?
The IC50 was 6.7 ± 1.02 µM.

What about the “anti-breast cancer activity (cytotoxicity)” value (from here on “anti-breast cancer activity”) [2] of the same compound?
The value was 70%.

And the IC50 [3]?
Its IC50 is 1.5 ± 0.4 µM.

And the “SI (Selectivity Index)” value ([3]; IC50 for PBMC/IC50 for Jurkat cell line)?
Its value is 45.93.

What about the IC50 [4] of the same compound?
The IC50 was 68.9 ± 10.3 µM.

What about the “cells that underwent apoptosis” value [5] of the same compound?
The value was 11.9%.

And the “cells that underwent apoptosis” value [6]?
The value was 10.2%.

What about the EGFR inhibition ([7]; 1 μM) of the same compound?
The EGFR inhibition was “weak inhibition”.

And the inhibition at 10 µM ([7]; 10 μM)?
The inhibition at 10 µM was 46%.

What does the source list for `Clc1ccc(C2CC(c3ccc4ccccc4c3)=NN2c2nc(-c3ccc(Br)cc3)cs2)cc1` (centres unmarked) [BTT-5]?
IC50 ([8]; naphthalene-linked pyrazoline–thiazole hybrids, read-out: anti-NSCLC IC50 (A549 cells)): 9.51 µM; EGFR inhibition ([9]; 10 µM concentration, 10 µM): 58% and 58.32%

What does the source list for `COc1ccc(C2CC(c3ccc(Cl)cc3Cl)=NN2c2nc(C)c(C(=O)Nc3ccccc3)s2)cc1OC` (centres unmarked) [Compound 10d]?
IC50 [8, 11]: 2.92 µM; IC50 ([9]; thiazolyl–pyrazolines): 0.0325 µM

For `COc1ccc2nc(Cl)c(C3CC(c4ccc(C)cc4)=NN3c3nc(-c4ccc(F)cc4)cs3)cc2c1` (centres unmarked) [Compound 6c], which IC50 ([10]; thiazolyl–pyrazolines) is on record?
Its IC50 is 0.227 µM.

What about the IC50 ([9]; thiazolyl–pyrazolines) of the same compound?
The IC50 was 0.0318 µM.

With `CCOC(=O)c1sc(N2N=C(c3ccc(Cl)cc3Cl)CC2c2ccc(OC)cc2)nc1C` (centres unmarked) [Compound 10b] as the compound, how does the IC50 [8, 11] read?
Its IC50 is 4.22 µM.

And the IC50 ([9]; thiazolyl–pyrazolines)?
Its IC50 is 0.0407 µM.

For `N#Cc1ccc(-c2csc(N3N=C(c4ccc(N5CCOCC5)cc4)CC3c3ccc(Cl)cc3)n2)cc1` (centres unmarked) [Compound 3f], which IC50 [8, 11] is on record?
Its IC50 is 10.8 µM.

And the IC50 ([10]; thiazolyl–pyrazolines)?
Its IC50 is 8.05 µM.

What about the IC50 ([9]; thiazolyl–pyrazolines) of the same compound?
Its IC50 is 4.34 µM.

For `COc1ccc(C2=NN(C(N)=S)C(c3cnc(-c4ccc(Cl)cc4)nc3)C2)cc1OC` (centres unmarked) [B-9, 5-(2-(4-chlorophenyl)pyrimidin-5-yl)-3-(3,4-dimethoxyphenyl)-4,5-dihydro-1H-pyrazole-1-carbothioamide], which “anti-NSCLC activity (cytotoxicity)” value [1] is on record?
Its value is 43%.

And the “anti-breast cancer activity” value [2]?
Its value is 33%.

With `CCc1nnc2c(Nc3ccc(C(=O)/C=C/c4ccc(OC)cc4)cc3)nc3ccccc3n12` [Compound 7e] as the compound, how does the IC50 [10, 12] read?
The IC50 was 8.23 ± 0.25 µM.

What about the IC50 [9, 12] of the same compound?
The IC50 was 0.083 ± 0.04 µM.

What does the source list for `C=CCn1c(SCC(=O)Nc2ccc(C(=O)/C=C/c3ccc(Cl)cc3)cc2)nnc1-c1cc(-c2ccccc2)nc2ccccc12` [Compound 7b]?
IC50 ([8]; quinoline/chalcone hybrids with 1,2,4-triazole, read-out: IC50 A549 cells): 3.6 ± 0.05 µM; IC50 [10, 13]: 3.3 ± 0.08 µM; IC50 [9, 13]: 1.3 ± 1.2 µM

With `COc1ccc(C2=NN(c3nc(-c4ccc(Cl)cc4)cs3)C(c3cnc(-c4ccc(Cl)cc4)nc3)C2)cc1OC` (centres unmarked) [BH-4, 2-(5-(2-(4-Chlorophenyl)pyrimidin-5-yl)-3-(3,4-dimethoxyphenyl)-4,5-dihydro-1H-pyrazol-1-yl)-4-(4-(chloro)phenyl)thiazole] as the compound, how does the “anti-breast cancer activity” value [2] read?
Its value is 38%.

For `COc1ccc(C2=NN(c3nc(-c4ccc(Br)cc4)cs3)C(c3cnc(-c4ccc(Cl)cc4)nc3)C2)cc1OC` (centres unmarked) [BH-5, 2-(5-(2-(4-Chlorophenyl)pyrimidin-5-yl)-3-(3,4-dimethoxyphenyl)-4,5-dihydro-1H-pyrazol-1-yl)-4-(4-(bromo)phenyl)thiazole], which “anti-NSCLC activity (cytotoxicity)” value [1] is on record?
The value was 37%.

What about the “anti-breast cancer activity” value [2] of the same compound?
Its value is 39%.

With `COc1ccc(C2CC(c3ccc(OC)c(OC)c3)=NN2c2nc(-c3ccccc3)cs2)cc1` (centres unmarked) [Compound 6e] as the compound, how does the IC50 ([10]; thiazolyl–pyrazolines) read?
Its IC50 is 7.21 µM.

And the IC50 ([9]; thiazolyl–pyrazolines)?
The IC50 was 0.009 µM.

With `CS(=O)(=O)CCNCc1ccc(-c2ccc3ncnc(Nc4ccc(OCc5cccc(F)c5)c(Cl)c4)c3c2)o1` [Lapatinib] as the compound, how does the IC50 [1] read?
Its IC50 is 18.2 ± 3.25 µM.

And the IC50 [2]?
The IC50 was 9.71 ± 1.12 µM.

And the IC50 [3]?
Its IC50 is 1.43 ± 0.35 µM.

What about the IC50 [4] of the same compound?
Its IC50 is 12.7 ± 2.08 µM.
